Measurements published in patent US12036199B1 (Dynamic Biologics Inc., priority 2023, dated 2024).

Key:
[1] = cited from earlier work
[2] = In vitro stability of 10 μM DB104 incubated in fresh human plasma (HRMS / LC-MS detection of DB104, intermediates and L-DOPA); format: in vitro ADME; conditions: for half-life at 10 μM: human, fresh human plasma; for degradation product of DB104 observed in human plasma: human plasma incubation of DB104
Protocol: (§1) 10 μM DB104 (DB104 is identified above and is one of the Derivatives of the present invention) was incubated in fresh plasma and phosphate buffer saline (PBS) in multiple aliquots, and each aliquot was divided into two equal halves at the following time points: 0, 1, 2, 4, 6, 24, 48, 72, 96, 120, 144, 168, 192, 216, 240, and 264 h. The first half was quenched with ACN:MeOH containing 1% formic acid and analyzed on the high-resolution mass spectroscopy (HRMS) to detect DB104 and all other possible intermediates. Labetalol was used as internal standard (IS). The other half was quenched with perchloric acid and analyzed on an AB Sciex 7500 mass spectrometer to detect L-DOPA. Dopamine-d4 will be used as IS.
(§2) Possible intermediates structures from the steps above are as follows:
(§3) DB104 took about 4 h and 1-4 h to get fully solubilized in human plasma and PBS, respectively. This was evident by initial increase in peak area followed by degradation. All peak area ratios were normalized to the max peak area ratio value observed. […] DB104M2 was not observed in either human plasma or PBS.

[3] = In vitro stability of 10 μM DB104 incubated in phosphate buffer saline (PBS); format: physicochemical; conditions: for half-life at 10 μM: phosphate buffer saline (PBS)
Protocol: as §1, §2, §3

[4] = Phase III clinical trials; cited from earlier work
[5] = cited from earlier work; remark: listed apart in the source

C[C@@](Cc1ccc(O)c(O)c1)(NN)C(=O)O [Carbidopa]
reduction of the amount of levodopa required to produce a given response ([1]; carbidopa administered with levodopa): 75%

CCCCCCCCCCCCOC(=O)[C@@H](N)Cc1ccc(OC(=O)CCCCCCCCCCC)c(OC(=O)CCCCCCCCCCC)c1 [DB104, (S)-4-(2-amino-3-(dodecyloxy)-3-oxopropyl)-1,2-phenylene didodecanoate]
time to get fully solubilized in human plasma ([2]; human plasma, initial increase in peak area): about 4 h | half-life at 10 μM ([2]; 10 μM DB104, fresh human plasma, 0-264 h, read-out: In vitro half-life in human plasma (converted)): 13.1 ± 1.4 h | half-life at 10 μM ([2]; human plasma, summary estimate, read-out: in vitro half-life estimated, human plasma (converted)): ~12 h | time over which L-DOPA is formed at detectable amounts, PBS ([3]; L-DOPA formed from DB104 in PBS): up to 72 h | time to get fully solubilized in PBS ([3]; PBS, initial increase in peak area): 1 to 4 h | half-life at 10 μM ([3]; 10 μM DB104, PBS, 0-264 h, read-out: In vitro half-life in PBS (converted)): 12.4 ± 2.6 h | half-life at 10 μM ([3]; PBS, summary estimate, read-out: in vitro half-life estimated, PBS (converted)): ~12 h

CCCCCCCCCCCC(=O)Oc1ccc(CC(N)C(=O)O)cc1OC(=O)CCCCCCCCCCC (stereo not shown) [DB104M1]
degradation product of DB104 observed in human plasma [2]: observed in PBS only | degradation product of DB104 observed in PBS ([3]; PBS incubation of DB104): observed in PBS only

CCCCCCCCCCCC(=O)Oc1cc(CC(N)C(=O)O)ccc1O (stereo not shown) [DB104M2]
degradation product of DB104 observed in human plasma [2]: not observed | degradation product of DB104 observed in PBS ([3]; PBS incubation of DB104): not observed

CCCCCCCCCCCCOC(=O)C(N)Cc1ccc(O)c(O)c1 (stereo not shown) [DB104M3]
degradation product of DB104 observed in human plasma [2]: observed | degradation product of DB104 observed in PBS ([3]; PBS incubation of DB104): observed

CCCCCCCCCCCCOC(=O)C(N)Cc1ccc(O)c(OC(=O)CCCCCCCCCCC)c1 (stereo not shown) [DB104M4]
degradation product of DB104 observed in human plasma [2]: observed | degradation product of DB104 observed in PBS ([3]; PBS incubation of DB104): observed | rank of degradant in PBS ([3]; PBS incubation of DB104): major degradant

CCOC(=O)[C@@H](N)Cc1ccc(O)c(O)c1 [Etilevodopa]
efficacy compared with Levodopa [4]: less efficacious than Levodopa

N[C@@H](Cc1ccc(O)c(O)c1)C(=O)O [Levodopa, (S)-2-amino-3-(3,4-dihydroxyphenyl)propanoic acid, reference compound]
Plasma half-life of levodopa alone [5]: ~0.833 h | degradation product of DB104 observed in human plasma [2]: observed | degradation product of DB104 observed in PBS ([3]; PBS incubation of DB104): observed

CCN(CC)C(=O)/C(C#N)=C/c1cc(O)c(O)c([N+](=O)[O-])c1 [entacapone]
increase of levodopa plasma exposure ([1]; 200 mg entacapone co-administered with levodopa/carbidopa): 35-40%
